Measured values as given in patent publication US20100249132A1, “IMIDAZOLE DERIVATIVES” (MERCK PATENT GESELLSCHAFT MIT BESCHRANKTER HAFTUNG, priority 2007, published 2010).

Target: T1, recombinant autotaxin (Homo sapiens, UniProt Q13822)
T1 construct: made in house; host or cells: Hi5 insect cells (baculovirus)
Experiment: Autotaxin test (enzyme test), Amplex Red fluorescence
Assay type: biochemical
Conditions: substrate LPC 75 μM, Amplex Red detection, read-out: IC50 (autotaxin inhibition, enzyme test)
Method: Autotaxin Inhibition (Enzyme Test)
Autotaxin Test (Enzyme Test)
The autotaxin activity is measured indirectly using Amplex Red reagent. Amplex Red is measured here as fluorogenic indicator for the H2O2 formed. In detail, autotaxin converts the substrate lysophosphatidylcholine (LPC) into phosphocholine and lysophosphatidylic acid (LPA). After this reaction, the phosphocholine is reacted with alkaline phosphatase to give inorganic phosphate and choline. In the next step, choline is oxidised by choline oxidase to give betaine, with formation of H2O2. H2O2 reacts with Amplex Red reagent in the presence of peroxidase (horseradish peroxidase) in a 1:1 stoichiometry and forms the highly fluorescent resorufin. The fluorescence is measured in a reaction-dependent kinetic mode in order that fluorescent signals from possible other fluorescent substances which are not involved in the reaction can be corrected out.
1.5 μl of a standard solution or of the test substances (substances with the name A(n)) in individual concentrations dissolved in 20 mM Hepes pH 7.2 with a maximum of 7.7% of DMSO are pre-incubated together with 10 μl (16 ng) of highly purified recombinant autotaxin in a black microtitre plate provided with 384 wells at 22° C. for 30 min. The reaction is then initiated by addition of 5 μl of L-α-lysophosphatidylcholine (LPC), where the final concentration of LPC is 75 μM. The mixture is incubated at 37° C. for 90 min. After the incubation, Amplex Red reagent, peroxidase (horseradish peroxidase) and choline oxidase is added, and the fluorescence is immediately measured at 612 nm with excitation of 485 nm in a “Tecan Ultra multimode” reader. The activity of autotaxin is calculated indirectly via detection of the H2O2 formed. • Material: • Microtitre plate: PS microplate, 384 wells, small volume, black Corning, Cat #3677 • Protein: recombinant autotaxin (Baculovirale Hi5 Expression) • Substrate: L-α-lysophosphatidylcholine (chicken egg)); Avanti Polar Lipids #830071 P • Standard: C14 LPA, Avanti Polar Lipids, Cat #857120P • Detection reagent: Amplex Red reagent; Invitrogen #A12222; dissolved in 1.923 ml of DMSO peroxidase type VI-A (horseradish) from Sigma #P6782; dissolved in 7.45 ml of test buffer, choline oxidase; Sigma #C5896; dissolved in 2.47 ml of test buffer • Detection reagent mix: 1:100 dilution of Amplex Red reagent in test buffer • Test buffer: 200 mM Tris HCl, Merck, Cat #1.08219, pH 7.9, 0.1% of BSA, lipid-free, Roche Cat #775835

IC50 [µM] | Structure (SMILES)
> 10 | NC(=O)c1nc(Cc2ccc(C(=O)O)s2)[nH]c1NC(=O)Nc1cccc(C(F)(F)F)c1 [Compound A65, 5-{4-Carbamoyl-5-[3-(3-trifluoromethylphenyl)-ureido]-1H-imidazol-2-ylmethyl}thiophene-2-carboxylic acid]
1 to 10 | NC(=O)c1nc(Cc2ccc(C(=O)O)s2)[nH]c1NC(=O)Nc1ccc(C(F)(F)F)cc1 [Compound A66, 5-{4-Carbamoyl-5-[3-(4-trifluoromethylphenyl)-ureido]-1H-imidazol-2-ylmethyl}thiophene-2-carboxylic acid]
> 10 | Cc1ccccc1NC(=O)Nc1[nH]c(Cc2ccc(C(=O)O)s2)nc1C(N)=O [Compound A67, 5-[4-Carbamoyl-5-(3-o-tolylureido)-1H-imidazol 2-ylmethyl]thiophene-2-carboxylic acid]
1 to 10 | CC(C)c1ccc(NC(=O)Nc2[nH]c(Cc3ccc(C(=O)O)s3)nc2C(N)=O)cc1 [Compound A68, 5-{4-Carbamoyl-5-[3-(4-isopropylphenyl)ureido]-1H-imidazol-2-ylmethyl}thiophene-2-carboxylic acid]
> 10 | Cc1ccc(NC(=O)Nc2[nH]c(Cc3ccc(C(=O)O)s3)nc2C(N)=O)cc1 [Compound A69, 5-[4-Carbamoyl-5-(3-p-tolylureido)-1H-imidazol 2-ylmethyl]thiophene-2-carboxylic acid]
1 to 10 | Cc1ccc(NC(=O)Nc2[nH]c(Cc3ccc(C(=O)O)s3)nc2C(N)=O)c(C)c1 [Compound A71, 5-{4-Carbamoyl-5-[3-(2,4-dimethylphenyl)-ureido]-1H-imidazol-2-ylmethyl}thiophene-2-carboxylic acid]
1 to 10 | CCc1ccc(NC(=O)Nc2[nH]c(Cc3ccc(C(=O)O)s3)nc2C(N)=O)cc1 [Compound A72, 5-{4-Carbamoyl-5-[3-(4-ethylphenyl)ureido]-1H-imidazol-2-ylmethyl}thiophene-2-carboxylic acid]
> 10 | Cc1cc(NC(=O)Nc2[nH]c(Cc3ccc(C(=O)O)s3)nc2C(N)=O)ccc1F [Compound A73, 5-{4-Carbamoyl-5-[3-(4-fluoro-3-methylphenyl)-ureido]-1H-imidazol-2-ylmethyl}thiophene-2-carboxylic acid]
1 to 10 | Cc1cc(Cl)ccc1NC(=O)Nc1[nH]c(Cc2ccc(C(=O)O)s2)nc1C(N)=O [Compound A74, 5-{4-Carbamoyl-5-[3-(4-chloro-2-methylphenyl)-ureido]-1H-imidazol-2-ylmethyl}thiophene-2-carboxylic acid]
> 10 | NC(=O)c1nc(Cc2ccc(C(=O)O)s2)[nH]c1NC(=O)Nc1ccc(F)c(C(F)(F)F)c1 [Compound A75, 5-{4-Carbamoyl-5-[3-(4-fluoro-3-trifluoromethyl-phenyl)ureido]-1H-imidazol-2-ylmethyl}-thiophene-2-carboxylic acid]
> 10 | CCCCc1ccc(NC(=O)Nc2[nH]c(Cc3ccc(C(=O)NC4CCCCC4)o3)nc2C(N)=O)cc1 [Compound A77, 5-[3-(4-Butylphenyl)ureido]-2-(5-cyclohexyl-carbamoylfuran-2-ylmethyl)-1H-imidazole-4-carboxamide]
> 10 | CCCCc1ccc(NC(=O)Nc2[nH]c(Cc3ccc(C(=O)N(CC)CC)o3)nc2C(N)=O)cc1 [Compound A78, 5-[3-(4-Butylphenyl)ureido]-2-(5-diethyl-carbamoylfuran-2-ylmethyl)-1H-imidazole-4-carboxamide]
> 10 | CCCCc1ccc(NC(=O)Nc2[nH]c(Cc3ccc(C(=O)N(C)CCCC)o3)nc2C(N)=O)cc1 [Compound A79, 2-[5-(Butylmethylcarbamoyl)furan-2-ylmethyl]-5-[3-(4-butylphenyl)ureido]-1H-imidazole-4-carboxamide]
> 10 | CCCCc1ccc(NC(=O)Nc2[nH]c(Cc3ccc(C(=O)N(CCCC)CCCC)o3)nc2C(N)=O)cc1 [Compound A80, 5-[3-(4-Butylphenyl)ureido]-2-(5-dibutyl-carbamoylfuran-2-ylmethyl)-1H-imidazole-4-carboxamide]
> 10 | CCCCc1ccc(NC(=O)Nc2[nH]c(Cc3ccc(C(=O)N4CCCC4)o3)nc2C(N)=O)cc1 [Compound A81, 5-[3-(4-Butylphenyl)ureido]-2-[5-(pyrrolidine-1-carbonyl)furan-2-ylmethyl]-1H-imidazole-4-carboxamide]
> 10 | CCCCc1ccc(NC(=O)Nc2[nH]c(Cc3ccc(C(=O)N4C[C@@H](C)O[C@@H](C)C4)o3)nc2C(N)=O)cc1 [Compound A82, 5-[3-(4-Butylphenyl)ureido]-2-[5-((5R,6S)-2,6-dimethylmorpholine-4-carbonyl)furan-2-yl-methyl]-1H-imidazole-4-carboxamide]
> 10 | CCCCc1ccc(NC(=O)Nc2[nH]c(Cc3ccc(C(=O)N4CCOCC4)o3)nc2C(N)=O)cc1 [Compound A83, 5-[3-(4-Butylphenyl)ureido]-2-[5-(morpholine-4-carbonyl)furan-2-ylmethyl]-1H-imidazole-4-carboxamide]
1 to 10 | CCCCc1ccc(NC(=O)Nc2[nH]c(Cc3ccc(C(=O)N(C)c4ccccc4)o3)nc2C(N)=O)cc1 [Compound A84, 5-[3-(4-Butylphenyl)ureido]-2-[5-(methylphenyl-carbamoyl)furan-2-ylmethyl]-1H-imidazole-4-carboxamide]
1 to 10 | CCCCc1ccc(NC(=O)Nc2[nH]c(Cc3ccc(C(=O)N4CCN(C)CC4)o3)nc2C(N)=O)cc1 [Compound A85, 5-[3-(4-Butylphenyl)ureido]-2-[5-(4-methyl-piperazine-1-carbonyl)furan-2-ylmethyl]-1H-imidazole-4-carboxamide]
> 10 | CCCCc1ccc(NC(=O)Nc2[nH]c(Cc3ccc(C(=O)N4CCN(c5ccccc5)CC4)o3)nc2C(N)=O)cc1 [Compound A86, 5-[3-(4-Butylphenyl)ureido]-2-[5-(4-phenyl-piperazine-1-carbonyl)furan-2-ylmethyl]-1H-imidazole-4-carboxamide]
> 10 | CCCCc1ccc(NC(=O)Nc2[nH]c(Cc3ccc(C(=O)N4CCC(C)CC4)o3)nc2C(N)=O)cc1 [Compound A87, 5-[3-(4-Butylphenyl)ureido]-2-[5-(4-methyl-piperidine-1-carbonyl)furan-2-ylmethyl]-1H-imidazole-4-carboxamide]
> 10 | CCCCc1ccc(NC(=O)Nc2[nH]c(Cc3ccc(C(=O)N4CCCCC4)o3)nc2C(N)=O)cc1 [Compound A88, 5-[3-(4-Butylphenyl)ureido]-2-[5-(piperidine-1-carbonyl)furan-2-ylmethyl]-1H-imidazole-4-carboxamide]
> 10 | CCCCc1ccc(NC(=O)Nc2[nH]c(Cc3ccc(C(=O)N(C)CCC)o3)nc2C(N)=O)cc1 [Compound A90, 5-[3-(4-Butylphenyl)ureido]-2-[5-(methylpropyl-carbamoyl)furan-2-ylmethyl]-1H-imidazole-4-carboxamide]
1 to 10 | CCCCc1ccc(NC(=O)Nc2[nH]c(Cc3ccc(C(=O)N4CCC(CCO)CC4)o3)nc2C(N)=O)cc1 [Compound A91, 5-[3-(4-Butylphenyl)ureido]-2-{5-[4-(2-hydroxy-ethyl)piperidine-1-carbonyl]furan-2-ylmethyl}-1H-imidazole-4-carboxamide]
> 10 | CC(C)c1ccccc1NC(=O)Nc1[nH]c(Cc2ccc(C(=O)O)cc2)nc1C(N)=O [Compound A92, 4-{4-Carbamoyl-5-[3-(2-isopropylphenyl)ureido]-1H-imidazol-2-ylmethyl}benzoic acid]
